# Measurements as given in patent publication US9549556B2, “Macrocyclic picolinamides as fungicides” (DOW AGROSCIENCES LLC, priority 2013, dated 2017).
# Where two headings read alike, the source gives them in different places.
# Columns and labels:
# Puccinia triticina = assay: Wheat brown rust (PUCCRT) disease control on wheat seedlings; assay type: in vivo; conditions: 121.5 g/H, low volume (track spray) application, read-out: PUCCRT disease control rating (% Control)
# Alternaria solani = assay: Tomato early blight (ALTESO) disease control; assay type: in vivo; conditions: 1 DP, 100 ppm
# [1] = test system: Colletotrichum lagenarium; assay: Cucumber anthracnose (COLLLA) disease control; assay type: in vivo, Glomerella lagenarium (anamorph Colletotrichum lagenarium); conditions: 1 DP, 100 ppm
# Cercospora beticola = assay: Leaf spot of sugar beets (CERCBE) disease control; assay type: in vivo; conditions: 1 DP, 100 ppm, sugar beet
# Uncinula necator = assay: Grape powdery mildew (UNCINE) disease control; assay type: in vivo; conditions: 1 DP, 100 ppm
# Septoria tritici = assay: Leaf blotch of wheat (SEPTTR) disease control on wheat seedlings; assay type: in vivo, Mycosphaerella graminicola (anamorph Septoria tritici); conditions: Zymoseptoria tritici, 121.5 g/H, low volume (track spray) application, read-out: SEPTTR disease control rating (% Control)
# Method: Evaluation of Fungicidal Activity: Leaf Blotch of Wheat (Mycosphaerella graminicola; Anamorph: Septoria tritici; Bayer Code […]) Technical grades of materials were dissolved in acetone, which were then mixed with nine volumes of water containing 110 ppm Triton X-100. The fungicide solutions were applied onto wheat seedlings using an automated booth sprayer to run-off. All sprayed plants were allowed to air dry prior to further handling. All fungicides were evaluated using the aforementioned method for their activity vs. all target diseases. Wheat leaf blotch and brown rust activity were also evaluated using track spray applications, in which case the fungicides were formulated as EC formulations, containing 0.1% Trycol 5941 in the spray solutions. Wheat plants (variety Yuma) were grown from seed in a greenhouse in 50% mineral soil/50% soil-less Metro mix until the first leaf was fully emerged, with 7-10 seedlings per pot. These plants were inoculated with an aqueous spore suspension of Septoria tritici either prior to or after fungicide treatments. After inoculation the plants were kept in 100% relative humidity (one day in a dark dew chamber followed by two to three days in a lighted dew chamber at 20° C.) to permit spores to germinate and infect the leaf. The plants were then transferred to a greenhouse set at 20° C. for disease to develop. When disease symptoms were fully expressed on the 1st leaves of untreated plants, infection levels were assessed on a scale of 0 to 100 percent disease severity. Percent disease control was calculated using the ratio of disease severity on treated plants relative to untreated plants.
# Rhyncosporium secalis = assay: Barley scald (RHYNSE) disease control; assay type: in vivo; conditions: 1 DP, 100 ppm
# Erysiphe cichoracearum = assay: Powdery mildew of cucumber (ERYSCI) disease control; assay type: in vivo; conditions: 1 DP, 100 ppm
# [2] = test system: Blumeria graminis f. sp. hordei; assay: Barley powdery mildew (ERYSGH) disease control; assay type: in vivo; conditions: 1 DP, 100 ppm
# Pyricularia oryzae = assay type: in vivo, Magnaporthe grisea (anamorph Pyricularia oryzae); conditions: 1 DP, 100 ppm, rice
# Leptosphaeria nodorum = assay: Wheat glume blotch (LEPTNO) disease control; assay type: in vivo; conditions: 1 DP, 100 ppm
compound,measurement,setting,value
CCCC[C@H]1[C@H](C)OC(=O)[C@@H](NC(=O)c2nccc(OC)c2OC(C)=O)COC[C@@H]1OCC1CC1 [Compound 9],pest or weed control at 121.5 g/ha,"Puccinia triticina; 24 h, 1DP (1 Day Protectant)",> 70%
same,pest or weed control at 121.5 g/ha,"Puccinia triticina; 72 h, 3DC (3 Day Curative)",> 70%
same,ALTESO disease control rating (% Control),Alternaria solani,B (≦70)
same,COLLLA disease control rating (% Control),[1],A (>70)
same,CERCBE disease control rating (% Control),Cercospora beticola,B (≦70)
same,UNCINE disease control rating (% Control),Uncinula necator,A (>70)
same,pest or weed control at 121.5 g/ha,"Septoria tritici; 24 h, 1DP (1 Day Protectant)",> 70%
same,pest or weed control at 121.5 g/ha,"Septoria tritici; 72 h, 3DC (3 Day Curative)",> 70%
same,RHYNSE disease control rating (% Control),Rhyncosporium secalis,A (>70)
same,ERYSCI disease control rating (% Control),Erysiphe cichoracearum,B (≦70)
same,ERYSGH disease control rating (% Control),[2],B (≦70)
same,PYRIOR disease control rating (% Control),Pyricularia oryzae,B (≦70)
same,LEPTNO disease control rating (% Control),Leptosphaeria nodorum,A (>70)
